Experimental data as given in the Kinase Knowledgebase extract (Sharma et al. 2016).
pIC50: −log10 of the molar value.

Target: EGFR (UniProt P00533)
Sequence (P00533 whole entry, looked up): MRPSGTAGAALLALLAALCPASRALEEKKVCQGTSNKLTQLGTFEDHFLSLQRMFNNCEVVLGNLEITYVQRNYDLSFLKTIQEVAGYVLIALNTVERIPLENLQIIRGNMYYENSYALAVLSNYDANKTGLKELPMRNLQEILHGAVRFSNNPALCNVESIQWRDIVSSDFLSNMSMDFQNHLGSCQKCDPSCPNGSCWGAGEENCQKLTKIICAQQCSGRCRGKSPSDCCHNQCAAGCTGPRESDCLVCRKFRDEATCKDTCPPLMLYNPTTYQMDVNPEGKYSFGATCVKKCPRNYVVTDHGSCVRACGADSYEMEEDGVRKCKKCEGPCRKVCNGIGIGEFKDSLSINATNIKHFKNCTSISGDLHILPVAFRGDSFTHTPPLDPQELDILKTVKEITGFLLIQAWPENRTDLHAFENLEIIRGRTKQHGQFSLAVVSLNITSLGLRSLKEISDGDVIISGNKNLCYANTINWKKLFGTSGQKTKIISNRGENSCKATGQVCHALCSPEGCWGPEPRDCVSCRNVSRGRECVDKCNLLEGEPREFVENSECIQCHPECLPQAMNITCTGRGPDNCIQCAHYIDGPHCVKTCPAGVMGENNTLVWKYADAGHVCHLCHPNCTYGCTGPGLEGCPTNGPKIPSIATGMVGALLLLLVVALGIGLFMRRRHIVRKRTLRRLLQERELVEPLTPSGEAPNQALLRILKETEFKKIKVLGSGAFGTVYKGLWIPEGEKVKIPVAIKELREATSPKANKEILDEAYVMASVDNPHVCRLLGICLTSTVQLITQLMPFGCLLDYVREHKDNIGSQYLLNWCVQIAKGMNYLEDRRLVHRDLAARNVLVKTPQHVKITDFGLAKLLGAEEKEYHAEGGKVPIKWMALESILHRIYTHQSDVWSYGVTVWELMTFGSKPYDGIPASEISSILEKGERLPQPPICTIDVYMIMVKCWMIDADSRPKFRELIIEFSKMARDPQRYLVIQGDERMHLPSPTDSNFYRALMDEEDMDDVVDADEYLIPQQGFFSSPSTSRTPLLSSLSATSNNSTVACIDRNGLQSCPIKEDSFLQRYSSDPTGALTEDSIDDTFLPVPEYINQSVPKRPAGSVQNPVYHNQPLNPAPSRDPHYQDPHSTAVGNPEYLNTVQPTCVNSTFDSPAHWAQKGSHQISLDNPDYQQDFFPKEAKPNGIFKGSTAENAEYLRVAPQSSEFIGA

`CC(C)Oc1cc2c(Nc3ccc(Cl)c(Cl)c3)ncnc2cc1OCC1CN(C)CCO1` (stereo unspecified) and `COc1cc2c(Nc3ccc(Cl)c(Cl)c3)ncnc2cc1OCC1CN(C(C)C)CCO1` (stereo unspecified) cannot be ordered by pIC50: > 7.30 for the first, > 7.30 for the second.

`COc1cc2c(Nc3ccc(Cl)c(Cl)c3)ncnc2cc1OCC1CN(C2CCN(C)CC2)CCO1` (stereo unspecified) and `COc1cc2c(Nc3ccc(Cl)c(Cl)c3)ncnc2cc1OC[C@H]1CN2CCC[C@@H]2CO1` cannot be ordered by pIC50: > 7.30 for the first, > 7.30 for the second.

`COc1cc2c(Nc3ccc(Cl)c(Cl)c3)ncnc2cc1OCC1CN(S(=O)(=O)c2ccccc2)CCO1` (stereo unspecified) and `COc1cc2c(Nc3ccc(Cl)c(Cl)c3)ncnc2cc1OCC1CN(CC(=O)c2ccccc2)CCO1` (stereo unspecified) cannot be ordered by pIC50: > 7.30 for the first, > 7.30 for the second.

`COc1cc2c(Nc3ccc(Cl)cc3F)ncnc2cc1O[C@@H]1CO[C@@H]2[C@H]1OC[C@H]2F` and `COc1cc2c(Nc3cc(Cl)ccc3C)ncnc2cc1O[C@@H]1CO[C@@H]2[C@H]1OC[C@H]2F` cannot be ordered by pIC50: > 7.30 for the first, > 7.30 for the second.

`CCN1CCN(c2nc(COc3cc4ncnc(Nc5ccc(Cl)c(Cl)c5)c4cc3OC)cs2)CC1` and `COc1cc2c(Nc3ccc(Cl)c(Cl)c3)ncnc2cc1OCc1csc(N2CCNCC2)n1` cannot be ordered by pIC50: > 7.30 for the first, > 7.30 for the second.

`COc1cc2c(Nc3ccc(Cl)c(Cl)c3)ncnc2cc1OCC1CN(C(=O)c2ccc3c(c2)OCO3)CCO1` (stereo unspecified) and `COc1cc2c(Nc3ccc(Cl)c(Cl)c3)ncnc2cc1OCC1CN(C(=O)c2ccoc2)CCO1` (stereo unspecified) cannot be ordered by pIC50: > 7.30 for the first, > 7.30 for the second.

`COc1cc2c(Nc3ccc(Br)c(Cl)c3)ncnc2cc1O[C@H]1CO[C@H]2[C@@H]1OCC21OCCO1` and `COc1cc2c(Nc3ccc(Br)c(Cl)c3)ncnc2cc1O[C@H]1CO[C@@H]2CCO[C@H]12` cannot be ordered by pIC50: > 7.30 for the first, > 7.30 for the second.

`COc1cc2c(Nc3cc(Cl)c(Br)cc3F)ncnc2cc1OCC1CN(C)C(C)(C)CO1` (stereo unspecified) and `COc1cc2c(Nc3ccc(Cl)c(Cl)c3)ncnc2cc1OCC1CN(C)C(C)(C)CO1` (stereo unspecified) cannot be ordered by pIC50: > 7.30 for the first, > 7.30 for the second.

`CCN1CCc2nc(COc3cc4ncnc(Nc5ccc(Cl)c(Cl)c5)c4cc3OC)sc2C1` and `COc1cc2c(Nc3ccc(Cl)c(Cl)c3)ncnc2cc1OCc1nc2c(s1)CN(C)CC2` cannot be ordered by pIC50: > 7.30 for the first, > 7.30 for the second.

`COc1cc2c(Nc3ccc(Cl)c(Cl)c3)ncnc2cc1OC1CC2CCC(C1)N2C` (stereo unspecified) and `COc1cc2c(Nc3ccc(Cl)c(Cl)c3)ncnc2cc1OCC1CC2CCC(C1)N2C` (stereo unspecified) cannot be ordered by pIC50: > 7.30 for the first, > 7.30 for the second.

`COc1cc2c(Nc3ccc(Cl)c(Cl)c3)ncnc2cc1OCC1CN(C(=NC#N)N2CCCC2)CCO1` (stereo unspecified) and `COc1cc2c(Nc3ccc(Cl)c(Cl)c3)ncnc2cc1OCC1CN(C(=NC#N)N2CCN(C)CC2)CCO1` (stereo unspecified) cannot be ordered by pIC50: > 7.30 for the first, > 7.30 for the second.

`CCCCCCN1CCOC(COc2cc3ncnc(Nc4ccc(Cl)c(Cl)c4)c3cc2OC)C1` (stereo unspecified) and `CCCCCCCN1CCOC(COc2cc3ncnc(Nc4ccc(Cl)c(Cl)c4)c3cc2OC)C1` (stereo unspecified) cannot be ordered by pIC50: > 7.30 for the first, > 7.30 for the second.

`COc1cc2c(Nc3ccc(Cl)c(Cl)c3)ncnc2cc1O[C@@H]1CO[C@@H]2[C@H]1OC[C@H]2F` and `COc1cc2c(Nc3ccc(F)c(Cl)c3)ncnc2cc1O[C@@H]1CO[C@@H]2[C@H]1OC[C@H]2F` cannot be ordered by pIC50: > 7.30 for the first, > 7.30 for the second.

`CCC(C(=O)N1CCOC(COc2cc3ncnc(Nc4ccc(Cl)c(Cl)c4)c3cc2OC)C1)c1ccccc1` (stereo unspecified) and `CCCC(C)C(=O)N1CCOC(COc2cc3ncnc(Nc4ccc(Cl)c(Cl)c4)c3cc2OC)C1` (stereo unspecified) cannot be ordered by pIC50: > 7.30 for the first, > 7.30 for the second.

`COc1cc2c(Nc3ccc(Cl)c(Cl)c3)ncnc2cc1OCC1CN(CC(N)=O)CCO1` (stereo unspecified) and `CCC(=O)CN1CCOC(COc2cc3ncnc(Nc4ccc(Cl)c(Cl)c4)c3cc2OC)C1` (stereo unspecified) cannot be ordered by pIC50: > 7.30 for the first, > 7.30 for the second.

`COc1cc2c(Nc3ccc(Cl)c(Cl)c3F)ncnc2cc1OC[C@@H]1CN2CCC[C@H]2C(=O)N1C` and `COc1cc2c(Nc3ccc(Cl)c(Cl)c3F)ncnc2cc1OC[C@@H]1CN2CCCC[C@H]2C(=O)N1` cannot be ordered by pIC50: > 7.30 for the first, > 7.30 for the second.

`COc1cc2c(Nc3ccc(Cl)c(Cl)c3)ncnc2cc1OCc1nc(-c2cccnc2)cs1` and `COc1cc2c(Nc3ccc(Cl)c(Cl)c3)ncnc2cc1OCc1nc(-c2ccc(O)c(C(N)=O)c2)cs1` cannot be ordered by pIC50: > 7.30 for the first, > 7.30 for the second.

`COc1cc2c(Nc3ccc(Cl)c(Cl)c3)ncnc2cc1OCCC1CNC(C)(C)CO1` (stereo unspecified) and `COc1cc2c(Nc3ccc(Cl)c(Cl)c3)ncnc2cc1OCCC1OCCCO1` cannot be ordered by pIC50: > 7.30 for the first, > 7.30 for the second.

`COc1cc2c(Nc3cc(C)cc(C)c3)ncnc2cc1O[C@@H]1CO[C@@H]2[C@H]1OC[C@H]2F` and `COc1cc2c(Nc3cccc(Br)c3)ncnc2cc1O[C@@H]1CO[C@@H]2[C@H]1OC[C@H]2F` cannot be ordered by pIC50: > 7.30 for the first, > 7.30 for the second.

`COc1cc2c(Nc3ccc(F)c(Cl)c3F)ncnc2cc1OCC1CO[C@@H]2[C@@H](OC)CO[C@H]12` (stereo partly specified) and `COc1cc2c(Nc3ccc(F)c(Cl)c3F)ncnc2cc1O[C@@H]1CO[C@@H]2[C@H]1OC[C@H]2F` cannot be ordered by pIC50: > 7.30 for the first, > 7.30 for the second.

`COc1cc2c(Nc3ccc(F)c(Cl)c3)ncnc2cc1OCC1CN(C)CCO1` (stereo unspecified) and `COc1cc2c(Nc3ccc(Cl)cc3F)ncnc2cc1OCC1CN(C)CCO1` (stereo unspecified) cannot be ordered by pIC50: > 7.30 for the first, > 7.30 for the second.

`COc1cc2c(Nc3ccc(Br)c(Cl)c3Cl)ncnc2cc1O[C@@H]1CO[C@@H]2[C@H]1OC[C@H]2F` and `COc1cc2c(Nc3ccc(Cl)c(Cl)c3Cl)ncnc2cc1O[C@@H]1CO[C@@H]2[C@H]1OC[C@H]2F` cannot be ordered by pIC50: > 7.30 for the first, > 7.30 for the second.

`CCN1CCC[C@H]1c1noc(COc2cc3ncnc(Nc4ccc(Cl)c(Cl)c4)c3cc2OC)n1` and `COc1cc2c(Nc3ccc(Cl)c(Cl)c3)ncnc2cc1OCc1nc([C@@H]2CCCN2C)no1` cannot be ordered by pIC50: > 7.30 for the first, > 7.30 for the second.

`COc1cc2c(Nc3cccc(Cl)c3F)ncnc2cc1OCC1CN(C)CCO1` (stereo unspecified) and `COc1cc2c(Nc3cc(F)c(Br)cc3F)ncnc2cc1OCC1CN(C)CCO1` (stereo unspecified) cannot be ordered by pIC50: > 7.30 for the first, > 7.30 for the second.

`COc1cc2c(Nc3ccc(Cl)c(Cl)c3)ncnc2cc1OC[C@H]1C[C@@H]2CN(C)C[C@@H]2C1` and `COc1cc2c(Nc3ccc(Br)c(Cl)c3Cl)ncnc2cc1OC[C@H]1C[C@@H]2CN(C)C[C@@H]2C1` cannot be ordered by pIC50: > 7.30 for the first, > 7.30 for the second.

`COc1cc2c(Nc3ccc(Cl)c(Cl)c3)ncnc2cc1OCC1CN(CCCCCC#N)CCO1` (stereo unspecified) and `CCCCN1CCOC(COc2cc3ncnc(Nc4ccc(Cl)c(Cl)c4)c3cc2OC)C1` (stereo unspecified) cannot be ordered by pIC50: > 7.30 for the first, > 7.30 for the second.

`COc1cc2c(Nc3ccc(Br)c(Cl)c3)ncnc2cc1O[C@H]1CO[C@@H]2[C@H]1OC[C@@H]2N1CCN(C)CC1` and `COc1cc2c(Nc3ccc(Cl)c(Cl)c3)ncnc2cc1OC1CO[C@@H]2[C@@H](OC)CO[C@H]12` (stereo partly specified) cannot be ordered by pIC50: > 7.30 for the first, > 7.30 for the second.

`COc1cc2c(Nc3cc(Cl)c(Cl)c(Cl)c3)ncnc2cc1OCC1CN(C)CCO1` (stereo unspecified) and `COc1cc2c(Nc3ccc(C)c(Br)c3)ncnc2cc1OCC1CN(C)CCO1` (stereo unspecified) cannot be ordered by pIC50: > 7.30 for the first, > 7.30 for the second.

First: CCC(CC)CN1CCOC(COc2cc3ncnc(Nc4ccc(Cl)c(Cl)c4)c3cc2OC)C1 (stereo unspecified)
Second: CCCN1CCCOC(COc2cc3ncnc(Nc4ccc(Cl)c(Cl)c4)c3cc2OC)C1 (stereo unspecified)
The pIC50 of the first is higher: > 7.30 for the first, 6.00 to 7.30 for the second. The first is the more potent here.

`COc1cc2c(Nc3ccc(Cl)c(Cl)c3)ncnc2cc1OCC1CN(CCC2CCCCC2)CCCO1` (stereo unspecified) and `COCCN1CCCOC(COc2cc3ncnc(Nc4ccc(Cl)c(Cl)c4)c3cc2OC)C1` (stereo unspecified) cannot be ordered by pIC50: > 7.30 for the first, > 7.30 for the second.

`COc1cc2c(Nc3ccc(Cl)c(Cl)c3)ncnc2cc1OCC1CN(C(C)=O)CCO1` (stereo unspecified) and `COc1cc2c(Nc3ccc(Cl)c(Cl)c3)ncnc2cc1OCC1CN(C(C)=N)CCCO1` (stereo unspecified) cannot be ordered by pIC50: > 7.30 for the first, > 7.30 for the second.

`COc1cc2c(Nc3ccc(Cl)c(Cl)c3)ncnc2cc1OCC1CN(C)CC(C)(C)O1` (stereo unspecified) and `CCN1CCN(C)CC1COc1cc2ncnc(Nc3ccc(Cl)c(Cl)c3)c2cc1OC` (stereo unspecified) cannot be ordered by pIC50: > 7.30 for the first, > 7.30 for the second.

`COC[C@@]1(OC)CO[C@@H]2[C@H]1OC[C@H]2Oc1cc2ncnc(Nc3ccc(Br)c(Cl)c3)c2cc1OC` and `COc1cc2c(Nc3ccc(Br)cc3Cl)ncnc2cc1O[C@@H]1CO[C@@H]2[C@H]1OC[C@H]2F` cannot be ordered by pIC50: > 7.30 for the first, > 7.30 for the second.

`COc1cc2c(Nc3cccc(C(F)(F)F)c3F)ncnc2cc1O[C@@H]1CO[C@@H]2[C@H]1OC[C@H]2F` and `COc1cc2c(Nc3ccc(F)cc3Br)ncnc2cc1O[C@@H]1CO[C@@H]2[C@H]1OC[C@H]2F` cannot be ordered by pIC50: > 7.30 for the first, > 7.30 for the second.

`COc1cc2c(Nc3ccc(Cl)c(Cl)c3)ncnc2cc1OCc1csc(C2CCNCC2)n1` and `CCN1CCC[C@H]1c1nc(COc2cc3ncnc(Nc4ccc(Cl)c(Cl)c4)c3cc2OC)cs1` cannot be ordered by pIC50: > 7.30 for the first, > 7.30 for the second.

`COc1cc2c(Nc3ccc(Cl)c(Cl)c3)ncnc2cc1OCc1nnc(-c2ccc(C)cc2)o1` and `COc1cc2c(Nc3ccc(Cl)c(Cl)c3)ncnc2cc1OCc1noc(-c2c(C)noc2C)n1` cannot be ordered by pIC50: > 7.30 for the first, > 7.30 for the second.

`COc1cc2c(Nc3ccc(Cl)c(Cl)c3)ncnc2cc1OCc1noc(C2CCCCN2C(=O)OC(C)(C)C)n1` (stereo unspecified) and `CCN1CCCC1c1nc(COc2cc3ncnc(Nc4ccc(Cl)c(Cl)c4)c3cc2OC)no1` (stereo unspecified) cannot be ordered by pIC50: > 7.30 for the first, > 7.30 for the second.

`COc1cc2c(Nc3ccc(Cl)c(Cl)c3)ncnc2cc1OCc1nc(CN2CCCN(C)CC2)cs1` and `CCN1CCN(CC)C(COc2cc3ncnc(Nc4ccc(Cl)c(Cl)c4)c3cc2OC)C1` (stereo unspecified) cannot be ordered by pIC50: > 7.30 for the first, > 7.30 for the second.

`COc1cc2c(Nc3cccc(Cl)c3)ncnc2cc1O[C@@H]1CO[C@@H]2[C@H]1OC[C@H]2F` and `COc1cc2c(Nc3ccc(F)cc3)ncnc2cc1O[C@@H]1CO[C@@H]2[C@H]1OC[C@H]2F` cannot be ordered by pIC50: > 7.30 for the first, > 7.30 for the second.

`COc1cc2c(Nc3ccc(Cl)c(Cl)c3)ncnc2cc1OCC1CN(S(C)(=O)=O)CCCO1` (stereo unspecified) and `COc1cc2c(Nc3ccc(Cl)c(Cl)c3)ncnc2cc1OCC1CN(C(=O)CC(=O)O)CCO1` (stereo unspecified) cannot be ordered by pIC50: > 7.30 for the first, > 7.30 for the second.

`COc1cc2c(Nc3ccc(Cl)c(Cl)c3)ncnc2cc1OCC1CN(C(=O)c2ccc(Cl)nc2)CCO1` (stereo unspecified) and `COc1cc2c(Nc3ccc(Cl)c(Cl)c3)ncnc2cc1OCC1CN(C(=O)c2cc(F)ccc2F)CCO1` (stereo unspecified) cannot be ordered by pIC50: > 7.30 for the first, > 7.30 for the second.

`COc1cc2c(Nc3ccc(Cl)c(Cl)c3F)ncnc2cc1OC[C@H]1CN2CCOC[C@H]2CO1` and `COc1cc2c(Nc3ccc(Br)c(Cl)c3Cl)ncnc2cc1OC[C@@H]1CN2CCOC[C@H]2CO1` cannot be ordered by pIC50: > 7.30 for the first, > 7.30 for the second.

`COc1cc2c(Nc3ccc(Br)c(Cl)c3F)ncnc2cc1OC[C@@H]1CN2CCC[C@H]2C(=O)N1` and `COc1cc2c(Nc3ccc(Cl)c(Cl)c3F)ncnc2cc1OC[C@@H]1CN(C)CC(=O)N1` cannot be ordered by pIC50: > 7.30 for the first, > 7.30 for the second.

`COc1cc2c(Nc3ccc(Br)c(Cl)c3)ncnc2cc1O[C@@H]1CCOC1` and `COc1cc2c(Nc3ccc(Cl)c(Cl)c3)ncnc2cc1OCC1CCCCC1` cannot be ordered by pIC50: > 7.30 for the first, > 7.30 for the second.

`CCCCC(CC)C(=O)N1CCOC(COc2cc3ncnc(Nc4ccc(Cl)c(Cl)c4)c3cc2OC)C1` (stereo unspecified) and `COc1cc2c(Nc3ccc(Cl)c(Cl)c3)ncnc2cc1OCC1CN(CC2CC2)CCO1` (stereo unspecified) cannot be ordered by pIC50: > 7.30 for the first, > 7.30 for the second.

For `COc1cc2c(Nc3ccc(Cl)c(Cl)c3)ncnc2cc1OCC1CN(CCCc2ccccc2)CCO1` (stereo unspecified), the pIC50 was > 7.30.
